From US12546707B2, “Validation of natural matrices for therapeutic use” (priority 2024, dated 2026)

Test system: primary human chondrocytes (HC) exposed to IL1B
Assay: In vitro cell assay representative of osteoarthritis (transcriptomics, IPA Z-score of biological functions)
Format: cell-based
Conditions: chondrocytes with IL1B 5 ng/ml, vs pathological state control
Experimental: Each time one of the batch solutions was added, fresh IL1B [5 ng/ml] was also added to the medium. The time schedule used for experimental setting is as follows: [table] At the end of described treatment periods, cells were washed with 100 μl PBS and lysed and collected in RLT buffer (Qiagen, 1053393) added with β-mercaptoethanol (Sigma, M3148) and DX reagent (Qiagen, 19088) for gene expression analysis experiments. Total RNA was extracted from cells lysates using an QIAsymphony RNA Kit (Qiagen,) with the QIAsymphony SP instrument (Qiagen). The quality and quantity of RNA was determined by A230, A260, A280 and A320 measurements on VarioskanTM LUX multimode microplate reader (Thermo ScientificTM). Integrity of RNA was checked using a 2100 expert_Eukaryote Total RNA Nano Kit (Agilent). Whole transcriptome expression profile was evaluated using a Human ClariomTM S Pico Assay HT (Applied Biosystems, ThermoFisher Scientific) on a GeneTitan MC Instrument (Applied Biosystems, ThermoFisher Scientific), following the manufacturer's instructions. […] Arrays were washed, stained and then scanned using the GeneTitan MC Instrument (Applied Biosystems, ThermoFisher Scientific) and CEL Intensity files were generated by Affymetrix GeneChip Command Console Software (AGCC, ThermoFisher Scientific). […] Ingenuity Pathways Analysis (IPA) (QIAGEN \Inc., https://www.qiagenbioinformatics.com/products/ingenuitypathway-analysis) was used, for each investigated batch to evaluate modulations of gene expression relevant for effects of interest. The patho-physiological features of state-of-the-art “Osteoarthritis condition” were considered with particular attention to the following areas involved: [table] This knowledge was used to interrogate IPA via the “IPA Bioprofiler” tool, using the following key words: osteoarthritis, arthropathy, formation of cartilage tissue, destruction of cartilage tissue, damage of cartilage, connective tissue disorder, inflammation of joint, immune cell trafficking, oxidative stress and hyaluronic acid. The use of “IPA Bioprofiler” allowed to identify clusters of expressed genes causally linked to each of the identified biological functions and the specific molecular pathway underpinning them. […] Modulation of expressed genes were shown in different intensities of blue (signifying down-modulation) or red (signifying up-modulation). The resulting expected calculated impact, based on the literature, on the related biofunctions was determined by “IPA Molecule Activity Predictor” tool (MAP) and resumed in a heatmap visualization. The colour and intensity thereof were transformed into numerical values.

[1] = hallmark Protection from anatomical damage

Structure (SMILES): CC1(C)O[C@@H]2C[C@H]3[C@@H]4CCC5=CC(=O)C=C[C@]5(C)[C@@]4(F)[C@@H](O)C[C@]3(C)[C@]2(C(=O)CO)O1 [Triamcinolone acetonide, Triamcinolone Acetonide]
- Z-score values: Skeletal and muscular system development and function → articular dysfunction → joint space → Formation of cartilage tissue (hallmark Induction of proliferation): −0.31
- Z-score values: Organismal injury and abnormalities → joint inflammation and swelling, difficulty moving a joint → Osteoarthritis [1]: −0.15
- Z-score values: Skeletal and muscular system function → difficulty moving a joint → Non-traumatic arthropathy [1]: −0.17
- Z-score values: Inflammatory disease → inflammation and nociceptions → Inflammation of joint (hallmark Reduction of inflammation): −0.26
